Structures can show the parent of a compound that is named as a salt. Where two headings read alike, the source gives them in different places.
System: Acinetobacter baumannii ATCC17961
Experiment: Antimicrobial susceptibility testing: 90% growth inhibitory concentration (IC90) determination in Iso-Sensitest broth, OD600 growth
Format: cell-based
Settings: Acinetobacter baumannii, ATCC17961, 16 h
Procedure, shortened: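 OD600 read every 20 min for 16 h at 35±2° C; inhibition taken in log phase to derive IC90. Twofold, 10-point dilutions (e.g. 50–0.097 μM final), inoculum ~5×10^(5) CFU/ml.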

[1] = read-out: A. baumannii ATCC 17961 IC90 (uM), strain ATCC 17961, OD600 growth over 16 h
[2] = strain ATCC 17961, OD600 growth over 16 h, read-out: A. baumannii ATCC 17961 IC90

Structure (SMILES)	IC90 [1]	IC90 [2]
N[C@@H]1CN[C@H](C(=O)N2CCN(C(=O)c3ccc(Nc4nccn5c(-c6c[nH]nc6C(F)(F)F)cnc45)cc3Cl)CC2)C1 [Example 295, [4-[(2S,4S)-4-aminopyrrolidine-2-carbonyl]piperazin-1-yl]-[2-chloro-4-[[3-[3-(trifluoromethyl)-1H-pyrazol-4-yl]imidazo[1,2-a]pyrazin-8-yl]amino]phenyl] methanone formate]	0.473 µM	
COCCn1cc(-c2cnc3c(Nc4ccc(C(=O)N5CCN(C(=O)N[C@@H]6CCNC6)CC5)c(Cl)c4)nccn23)c(C(F)(F)F)n1 [Example 296, 4-[2-chloro-4-[[3-[1-(2-methoxyethyl)-3-(trifluoromethyl)pyrazol-4-yl]imidazo[1,2-a]pyrazin-8-yl]amino]benzoyl]-N-[(3R)-pyrrolidin-3-yl]piperazine-1-carboxamide formate]	0.491 µM	
N#CCn1cc(-c2cnc3c(Nc4ccc(C(=O)N5CCN(C(=O)N[C@H]6CCNC6)CC5)c(Cl)c4)nccn23)c(C(F)(F)F)n1 [Example 297, 4-[2-chloro-4-[[3-[1-(cyanomethyl)-3-(trifluoromethyl)pyrazol-4-yl]imidazo[1,2-a]pyrazin-8-yl]amino]benzoyl]-N-[(3S)-pyrrolidin-3-yl]piperazine-1-carboxamide formate]	0.31 µM	
CCc1cc(Nc2nccn3c(-c4cn(CCNC)nc4C(F)(F)F)cnc23)ccc1C(=O)NC [Example 298, 2-ethyl-N-methyl-4-[[3-[1-[2-(methylamino)ethyl]-3-(trifluoromethyl)pyrazol-4-yl]imidazo[1,2-a]pyrazin-8-yl]amino]benzamide]		1.32 µM
NCCC(=O)NCCNC(=O)c1ccc(Nc2nccn3c(-c4c[nH]nc4C(F)(F)F)cnc23)cc1Cl [Example 299, N-[2-(3-aminopropanoylamino)ethyl]-2-chloro-4-[[3-[3-(trifluoromethyl)-1H-pyrazol-4-yl]imidazo[1,2-a]pyrazin-8-yl]amino]benzamide]		0.699 µM
NCCCC(=O)NCCNC(=O)c1ccc(Nc2nccn3c(-c4c[nH]nc4C(F)(F)F)cnc23)cc1Cl [Example 300, N-[2-(4-aminobutanoylamino)ethyl]-2-chloro-4-[[3-[3-(trifluoromethyl)-1H-pyrazol-4-yl]imidazo[1,2-a]pyrazin-8-yl]amino]benzamide]		0.905 µM
CCc1cc(Nc2nccn3c(-c4cn(CCF)nc4C(F)(F)F)cnc23)ccc1C(=O)NCCOCCN [Example 301, N-[2-(2-aminoethoxy)ethyl]-2-ethyl-4-[[3-[1-(2-fluoroethyl)-3-(trifluoromethyl)pyrazol-4-yl]imidazo[1,2-a]pyrazin-8-yl]amino]benzamide formate]	0.164 µM	
CCc1cc(Nc2nccn3c(-c4cn(CC(F)F)nc4C(F)(F)F)cnc23)ccc1C(=O)NCCOCCN [Example 302, N-[2-(2-aminoethoxy)ethyl]-4-[[3-[1-(2,2-difluoroethyl)-3-(trifluoromethyl)pyrazol-4-yl]imidazo[1,2-a]pyrazin-8-yl]amino]-2-ethylbenzamide formate]	0.17 µM	
CCc1cc(Nc2nccn3c(-c4cn(CC5CCC5)nc4C(F)(F)F)cnc23)ccc1C(=O)NCCOCCN [Example 303, N-[2-(2-aminoethoxy)ethyl]-4-[[3-[1-(cyclobutylmethyl)-3-(trifluoromethyl)pyrazol-4-yl]imidazo[1,2-a]pyrazin-8-yl]amino]-2-ethylbenzamide formate]	0.201 µM	
CCc1cc(Nc2nccn3c(-c4cn(CC5CC(F)(F)C5)nc4C(F)(F)F)cnc23)ccc1C(=O)NCCOCCN [Example 304, N-[2-(2-aminoethoxy)ethyl]-4-[[3-[1-[(3,3-difluorocyclobutyl)methyl]-3-(trifluoromethyl)pyrazol-4-yl]imidazo[1,2-a]pyrazin-8-yl]amino]-2-ethylbenzamide formate]	0.253 µM	
CCc1cc(Nc2nccn3c(-c4cn(CCO)nc4C(F)(F)F)cnc23)ccc1C(=O)NCCOCCN [Example 305, N-[2-(2-aminoethoxy)ethyl]-2-ethyl-4-[[3-[1-(2-hydroxyethyl)-3-(trifluoromethyl)pyrazol-4-yl]imidazo[1,2-a]pyrazin-8-yl]amino]benzamide formate]	0.406 µM	
CCc1cc(Nc2nccn3c(-c4cn(CC(C)(C)CO)nc4C(F)(F)F)cnc23)ccc1C(=O)NCCOCCN [Example 306, N-[2-(2-aminoethoxy)ethyl]-2-ethyl-4-[[3-[1-(3-hydroxy-2,2-dimethylpropyl)-3-(trifluoromethyl)pyrazol-4-yl]imidazo[1,2-a]pyrazin-8-yl]amino]benzamide formate]	0.483 µM	
CCc1cc(Nc2nccn3c(-c4cn(CC5CCOC5)nc4C(F)(F)F)cnc23)ccc1C(=O)NCCOCCN (centres unmarked) [Example 307, N-[2-(2-aminoethoxy)ethyl]-2-ethyl-4-[[3-[1-(oxolan-3-ylmethyl)-3-(trifluoromethyl)pyrazol-4-yl]imidazo[1,2-a]pyrazin-8-yl]amino]benzamide formate]	0.514 µM	
O=C(N[C@@H]1CCN(C(=O)[C@@H]2C[C@@H](O)CN2)C1)c1ccc(Nc2nccn3c(-c4c[nH]nc4C(F)(F)F)cnc23)cc1Cl [Example 308, 2-chloro-N-[(3R)-1-[(2S,4R)-4-hydroxypyrrolidine-2-carbonyl]pyrrolidine-3-yl]-4-[[3-[3-(trifluoromethyl)-1H-pyrazol-4-yl]imidazo[1,2-a]pyrazin-8-yl]amino]benzamide]		0.525 µM
CCc1cc(Nc2nccn3c(-c4cn(CCN(C)C)nc4C(F)(F)F)cnc23)ccc1C(=O)NCCOCCN [Example 309, N-[2-(2-aminoethoxy)ethyl]-4-[[3-[1-[2-(dimethylamino)ethyl]-3-(trifluoromethyl)pyrazol-4-yl]imidazo[1,2-a]pyrazin-8-yl]amino]-2-ethylbenzamide formate]	0.618 µM	
CCOC(=O)Cn1cc(-c2cnc3c(Nc4ccc(C(=O)NCCOCCN)c(CC)c4)nccn23)c(C(F)(F)F)n1 [Example 310, ethyl 2-[4-[8-[4-[2-(2-aminoethoxy)ethylcarbamoyl]-3-ethylanilino]imidazo [1,2-a]pyrazin-3-yl]-3-(trifluoromethyl)pyrazol-1-yl]acetate formate]	0.719 µM	
CCc1cc(Nc2nccn3c(-c4cn(CCC(C)(C)O)nc4C(F)(F)F)cnc23)ccc1C(=O)NCCOCCN [Example 311, N-[2-(2-aminoethoxy)ethyl]-2-ethyl-4-[[3-[1-(3-hydroxy-3-methylbutyl)-3-(trifluoromethyl)pyrazol-4-yl]imidazo[1,2-a]pyrazin-8-yl]amino]benzamide formate]	0.769 µM	
CCc1cc(Nc2nccn3c(-c4cn(CCCO)nc4C(F)(F)F)cnc23)ccc1C(=O)NCCOCCN [Example 312, N-[2-(2-aminoethoxy)ethyl]-2-ethyl-4-[[3-[1-(3-hydroxypropyl)-3-(trifluoromethyl)pyrazol-4-yl]imidazo[1,2-a]pyrazin-8-yl]amino]benzamide formate]	0.839 µM	
O=C(N[C@H]1CCN(C(=O)[C@@H]2C[C@@H](O)CN2)C1)c1ccc(Nc2nccn3c(-c4c[nH]nc4C(F)(F)F)cnc23)cc1Cl [Example 313, 2-chloro-N-[(3S)-1-[(2S,4R)-4-hydroxypyrrolidine-2-carbonyl]pyrrolidin-3-yl]-4-[[3-[3-(trifluoromethyl)-1H-pyrazol-4-yl]imidazo[1,2-a]pyrazin-8-yl]amino]benzamide]		0.995 µM
CCc1cc(Nc2nccn3c(-c4cn(CC(O)CO)nc4C(F)(F)F)cnc23)ccc1C(=O)NCCOCCN (centres unmarked) [Example 314, N-[2-(2-aminoethoxy)ethyl]-4-[[3-[1-(2,3-dihydroxypropyl)-3-(trifluoromethyl)pyrazol-4-yl]imidazo[1,2-a]pyrazin-8-yl]amino]-2-ethylbenzamide formate]	1.43 µM	
CCc1cc(Nc2nccn3c(-c4cn(CC(O)CCO)nc4C(F)(F)F)cnc23)ccc1C(=O)NCCOCCN (centres unmarked) [Example 315, N-[2-(2-aminoethoxy)ethyl]-4-[[3-[1-(2,4-dihydroxybutyl)-3-(trifluoromethyl)pyrazol-4-yl]imidazo[1,2-a]pyrazin-8-yl]amino]-2-ethylbenzamide formate]	1.46 µM	
CCc1cc(Nc2nccn3c(-c4cn(CC(N)=O)nc4C(F)(F)F)cnc23)ccc1C(=O)NCCOCCN [Example 316, N-[2-(2-aminoethoxy)ethyl]-4-[[3-[1-(2-amino-2-oxoethyl)-3-(trifluoromethyl)pyrazol-4-yl]imidazo[1,2-a]pyrazin-8-yl]amino]-2-ethylbenzamide formate]	1.52 µM	
CCc1cc(Nc2nccn3c(-c4cn(CCN5CCOCC5)nc4C(F)(F)F)cnc23)ccc1C(=O)NCCOCCN [Example 317, N-[2-(2-aminoethoxy)ethyl]-2-ethyl-4-[[3-[1-(2-morpholin-4-ylethyl)-3-(trifluoromethyl)pyrazol-4-yl]imidazo[1,2-a]pyrazin-8-yl]amino]benzamide formate]	1.88 µM	
NC1CCN(C(=O)c2ccc(Nc3nccn4c(-c5c[nH]nc5C(F)(F)F)cnc34)cc2Cl)CC1 [Example 318, (4-aminopiperidin-1-yl)-[2-chloro-4-[[3-[3-(trifluoromethyl)-1H-pyrazol-4-yl]imidazo[1,2-a]pyrazin-8-yl]amino]phenyl]methanone]		0.411 µM
CCc1cc(Nc2nccn3c(-c4c[nH]nc4C(F)(F)F)cnc23)ccc1C(=O)NCCCCCN [Example 319, N-(5-aminopentyl)-2-ethyl-4-[[3-[3-(trifluoromethyl)-1H-pyrazol-4-yl]imidazo[1,2-a]pyrazin-8-yl]amino]benzamide hydrochloride]		0.438 µM
N[C@H]1CCN(C(=O)c2ccc(Nc3nccn4c(-c5c[nH]nc5C(F)(F)F)cnc34)cc2Cl)C1 [Example 320, [(3S)-3-aminopyrrolidin-1-yl]-[2-chloro-4-[[3-[3-(trifluoromethyl)-1H-pyrazol-4-yl]imidazo[1,2-a]pyrazin-8-yl]amino]phenyl]methanone]		0.705 µM

— patent publication US20230203043A1, “NOVEL IMIDAZOPYRAZINE DERIVATIVES” (Hoffmann-La Roche Inc., priority 2020, published 2023)
